# Assay results reported in patent US6355799B1, “Substituted benzene compounds, process for their preparation, and herbicidal and defoliant compositions containing them” (ISK Americas Incorporated, priority 1997, dated 2002).
# Experiments:
# Format in all cases: in vivo
# [1] = system: lambsquarters (Chenopodium album, CHEAL); assay: Post-emerge test, greenhouse herbicide activity screening; details: Chenopodium album, post-emergence, 336 h, post-emerge, phytotoxicity rating 0-100 at 14 days after application, read-out: Post-emerge Herbicidal Activity CHEAL; for pest or weed control at 63 g/ha: 63 g ai/ha; for pest or weed control at 250 g/ha: 250 g ai/ha
# How it was run: (§1)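 Herbicidal damage is scored 0 (none) to 100 (complete plant death) two weeks after a simulated field spray. Rates span 15–1000 g ai/ha, delivered in acetone at 187 l/ha. For post-emergence treatments, plants have 2–3 leaves and the spray carries 0.25% v/v non-ionic surfactant.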
# [2] = system: barnyardgrass (Echinochloa crus-galli, ECHCG); assay: as above; details: Echinochloa crus-galli, post-emergence, 336 h, post-emerge, phytotoxicity rating 0-100 at 14 days after application, read-out: Post-emerge Herbicidal Activity ECHCG; for pest or weed control at 63 g/ha: 63 g ai/ha; for pest or weed control at 250 g/ha: 250 g ai/ha
# How it was run: as §1
# [3] = system: velvetleaf (Abutilon theophrasti, ABUTH); assay: as above; details: Abutilon theophrasti, post-emergence, 336 h, post-emerge, phytotoxicity rating 0-100 at 14 days after application, read-out: Post-emerge Herbicidal Activity ABUTH; for pest or weed control at 63 g/ha: 63 g ai/ha; for pest or weed control at 250 g/ha: 250 g ai/ha
# How it was run: as §1
# [4] = system: green foxtail (Setaria viridis, SETVI); assay: as above; details: Setaria viridis, post-emergence, 336 h, post-emerge, phytotoxicity rating 0-100 at 14 days after application, read-out: Post-emerge Herbicidal Activity SETVI; for pest or weed control at 63 g/ha: 63 g ai/ha; for pest or weed control at 250 g/ha: 250 g ai/ha
# How it was run: as §1
# [5] = system: johnsongrass (Sorghum halepense, SORHA); assay: as above; details: Sorghum halepense, post-emergence, 336 h, post-emerge, phytotoxicity rating 0-100 at 14 days after application, read-out: Post-emerge Herbicidal Activity SORHA
# How it was run: as §1
# [6] = system: ivyleaf morningglory (Ipomoea hederacea, IPOHE); assay: as above; details: Ipomoea, post-emergence, 336 h, post-emerge, phytotoxicity rating 0-100 at 14 days after application, read-out: Post-emerge Herbicidal Activity IPOHE; for pest or weed control at 63 g/ha: 63 g ai/ha; for pest or weed control at 250 g/ha: 250 g ai/ha
# How it was run: as §1
# [7] = system: sicklepod (Cassia obtusifolia, CASOB); assay: as above; details: Senna obtusifolia, post-emergence, 336 h, post-emerge, phytotoxicity rating 0-100 at 14 days after application, read-out: Post-emerge Herbicidal Activity CASOB; for pest or weed control at 63 g/ha: 63 g ai/ha; for pest or weed control at 250 g/ha: 250 g ai/ha
# How it was run: as §1
# [8] = system: lambsquarters (Chenopodium album, CHEAL); assay: Pre-emerge test, greenhouse herbicide activity screening; details: for Pre-emerge herbicidal activity, phytotoxicity rating CHEAL: rating scale 0-100, 14 days after application
# How it was run: (§2)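 Rating: 0–100 visual injury, 14 DAA. Application: acetone, 187 l/ha, 15–1000 g ai/ha, flat-fan track sprayer with nozzle 40–45 cm above soil or canopy. Post-emerge runs used 0.25% v/v surfactant on 2–3 leaf plants.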
# [9] = system: barnyardgrass (Echinochloa crus-galli, ECHCG); assay: as above; details: for Pre-emerge herbicidal activity, phytotoxicity rating ECHCG: rating scale 0-100, 14 days after application
# How it was run: as §2
# [10] = system: velvetleaf (Abutilon theophrasti, ABUTH); assay: as above; details: for Pre-emerge herbicidal activity, phytotoxicity rating ABUTH: rating scale 0-100, 14 days after application
# How it was run: as §2
# [11] = system: large crabgrass (Digitaria sanguinalis, DIGSA); assay: as above; details: for Pre-emerge herbicidal activity, phytotoxicity rating DIGSA: rating scale 0-100, 14 days after application
# How it was run: as §2
# [12] = system: green foxtail (Setaria viridis, SETVI); assay: as above; details: for Pre-emerge herbicidal activity, phytotoxicity rating SETVI: rating scale 0-100, 14 days after application
# How it was run: as §2
# [13] = system: ivyleaf morningglory (Ipomoea hederacea, IPOHE); assay: as above; details: for Pre-emerge herbicidal activity, phytotoxicity rating IPOHE: rating scale 0-100, 14 days after application
# How it was run: as §2
# [14] = system: sicklepod (Cassia obtusifolia, CASOB); assay: as above; details: for Pre-emerge herbicidal activity, phytotoxicity rating CASOB: rating scale 0-100, 14 days after application
# How it was run: as §2
# [15] = system: johnsongrass (Sorghum halepense, SORHA); assay: as above; details: rating scale 0-100, 14 days after application
# How it was run: as §2
smiles,measurement,setting,value
Cc1nn(-c2c(F)cc(Cl)cc2NC(=O)c2ccc3ccccc3c2)c(=O)n1C(F)F [Compound 6-24],pest or weed control at 63 g/ha,[1],30%
same,pest or weed control at 250 g/ha,[1],90%
same,pest or weed control at 63 g/ha,[2],0%
same,pest or weed control at 250 g/ha,[2],0%
same,pest or weed control at 63 g/ha,[3],20%
same,pest or weed control at 250 g/ha,[3],95%
same,pest or weed control at 63 g/ha,[4],0%
same,pest or weed control at 250 g/ha,[4],40%
same,pest or weed control at 63 g/ha,[5]; 63 g ai/ha,0%
same,pest or weed control at 250 g/ha,[5]; 250 g ai/ha,0%
same,pest or weed control at 63 g/ha,[6],0%
same,pest or weed control at 250 g/ha,[6],60%
same,pest or weed control at 63 g/ha,[7],0%
same,pest or weed control at 250 g/ha,[7],10%
same,pest or weed control at 63 g/ha,"[8]; Chenopodium album, pre-emergence, 336 h, pre-emerge, rate 63 g ai/ha, phytotoxicity rating 0-100 at 14 days after application, read-out: Pre-emerge Herbicidal Activity CHEAL",30%
same,pest or weed control at 250 g/ha,"[8]; Chenopodium album, pre-emergence, 336 h, pre-emerge, rate 250 g ai/ha, phytotoxicity rating 0-100 at 14 days after application, read-out: Pre-emerge Herbicidal Activity CHEAL",90%
same,pest or weed control at 63 g/ha,"[9]; Echinochloa crus-galli, pre-emergence, 336 h, pre-emerge, rate 63 g ai/ha, phytotoxicity rating 0-100 at 14 days after application, read-out: Pre-emerge Herbicidal Activity ECHCG",0%
same,pest or weed control at 250 g/ha,"[9]; Echinochloa crus-galli, pre-emergence, 336 h, pre-emerge, rate 250 g ai/ha, phytotoxicity rating 0-100 at 14 days after application, read-out: Pre-emerge Herbicidal Activity ECHCG",0%
same,pest or weed control at 63 g/ha,"[10]; Abutilon theophrasti, pre-emergence, 336 h, pre-emerge, rate 63 g ai/ha, phytotoxicity rating 0-100 at 14 days after application, read-out: Pre-emerge Herbicidal Activity ABUTH",0%
same,pest or weed control at 250 g/ha,"[10]; Abutilon theophrasti, pre-emergence, 336 h, pre-emerge, rate 250 g ai/ha, phytotoxicity rating 0-100 at 14 days after application, read-out: Pre-emerge Herbicidal Activity ABUTH",70%
same,pest or weed control at 63 g/ha,"[11]; Digitaria sanguinalis, pre-emergence, 336 h, pre-emerge, rate 63 g ai/ha, phytotoxicity rating 0-100 at 14 days after application, read-out: Pre-emerge Herbicidal Activity DIGSA",0%
same,pest or weed control at 250 g/ha,"[11]; Digitaria sanguinalis, pre-emergence, 336 h, pre-emerge, rate 250 g ai/ha, phytotoxicity rating 0-100 at 14 days after application, read-out: Pre-emerge Herbicidal Activity DIGSA",20%
same,pest or weed control at 63 g/ha,"[12]; Setaria viridis, pre-emergence, 336 h, pre-emerge, rate 63 g ai/ha, phytotoxicity rating 0-100 at 14 days after application, read-out: Pre-emerge Herbicidal Activity SETVI",0%
same,pest or weed control at 250 g/ha,"[12]; Setaria viridis, pre-emergence, 336 h, pre-emerge, rate 250 g ai/ha, phytotoxicity rating 0-100 at 14 days after application, read-out: Pre-emerge Herbicidal Activity SETVI",40%
same,pest or weed control at 63 g/ha,"[13]; Ipomoea, pre-emergence, 336 h, pre-emerge, rate 63 g ai/ha, phytotoxicity rating 0-100 at 14 days after application, read-out: Pre-emerge Herbicidal Activity IPOHE",0%
same,pest or weed control at 250 g/ha,"[13]; Ipomoea, pre-emergence, 336 h, pre-emerge, rate 250 g ai/ha, phytotoxicity rating 0-100 at 14 days after application, read-out: Pre-emerge Herbicidal Activity IPOHE",0%
same,pest or weed control at 63 g/ha,"[14]; Senna obtusifolia, pre-emergence, 336 h, pre-emerge, rate 63 g ai/ha, phytotoxicity rating 0-100 at 14 days after application, read-out: Pre-emerge Herbicidal Activity CASOB",0%
same,pest or weed control at 250 g/ha,"[14]; Senna obtusifolia, pre-emergence, 336 h, pre-emerge, rate 250 g ai/ha, phytotoxicity rating 0-100 at 14 days after application, read-out: Pre-emerge Herbicidal Activity CASOB",0%
"COc1c(Cl)cc(F)c(N2C(=O)c3ccccc3C2=O)c1NC(=O)c1ccc2ccccc2c1 [Compound 13-3, N-[4-chloro-6-fluoro-3-methoxy-2-(2-naphthoyl)aminophenyl]phthalimide]",pest or weed control at 63 g/ha,[1],100%
same,pest or weed control at 250 g/ha,[1],100%
same,pest or weed control at 63 g/ha,[2],0%
same,pest or weed control at 250 g/ha,[2],20%
same,pest or weed control at 63 g/ha,[3],100%
same,pest or weed control at 250 g/ha,[3],90%
same,pest or weed control at 63 g/ha,[4],10%
same,pest or weed control at 250 g/ha,[4],30%
same,pest or weed control at 63 g/ha,[6],75%
same,pest or weed control at 250 g/ha,[6],70%
same,pest or weed control at 63 g/ha,[7],90%
same,pest or weed control at 250 g/ha,[7],100%
same,"Pre-emerge herbicidal activity, phytotoxicity rating CHEAL",[8]; 63 g ai/ha,90
same,"Pre-emerge herbicidal activity, phytotoxicity rating CHEAL",[8]; 250 g ai/ha,100
same,"Pre-emerge herbicidal activity, phytotoxicity rating ECHCG",[9]; 63 g ai/ha,0
same,"Pre-emerge herbicidal activity, phytotoxicity rating ECHCG",[9]; 250 g ai/ha,10
same,"Pre-emerge herbicidal activity, phytotoxicity rating ABUTH",[10]; 63 g ai/ha,0
same,"Pre-emerge herbicidal activity, phytotoxicity rating ABUTH",[10]; 250 g ai/ha,20
same,"Pre-emerge herbicidal activity, phytotoxicity rating DIGSA",[11]; 63 g ai/ha,0
same,"Pre-emerge herbicidal activity, phytotoxicity rating DIGSA",[11]; 250 g ai/ha,30
same,"Pre-emerge herbicidal activity, phytotoxicity rating SETVI",[12]; 63 g ai/ha,10
same,"Pre-emerge herbicidal activity, phytotoxicity rating SETVI",[12]; 250 g ai/ha,40
same,"Pre-emerge herbicidal activity, phytotoxicity rating SORHA",[15]; 63 g ai/ha,0
same,"Pre-emerge herbicidal activity, phytotoxicity rating SORHA",[15]; 250 g ai/ha,10
same,"Pre-emerge herbicidal activity, phytotoxicity rating IPOHE",[13]; 63 g ai/ha,0
same,"Pre-emerge herbicidal activity, phytotoxicity rating IPOHE",[13]; 250 g ai/ha,0
same,"Pre-emerge herbicidal activity, phytotoxicity rating CASOB",[14]; 63 g ai/ha,0
same,"Pre-emerge herbicidal activity, phytotoxicity rating CASOB",[14]; 250 g ai/ha,30
